Type in all cases: in vivo, C57BL/6 mice
One assay relates to MCa32A cells. The experiment in a line: Tumor rejection model, MC38 murine colon adenocarcinoma cells expressing CEA (Example 2). The method, then: (§1) Blood sampling was performed by tail bleeding.
MC32aCEA cells expressing CEA protein were obtained from Pr. W. Zimermann (LTI, Munich). These cells are derived from the MC38 murine colon adenocarcinoma (48).

In assay [1] the test system is CD4, CD8 and B220 cells in the spleen and lymph nodes. The experiment in a line: Lymphocyte depletion in lymphoid organs, phenotyping of spleen and lymph nodes (Example 1, Table 1). The note with it: 10 days after onset of immunosuppressive treatment; ATG 20 mg/kg single ip, fludarabine 200 mg/kg/day ip 6 days. The method, then: as §1
Blood, lymph node cells and splenocytes were processed according to previously described methods (28, 29) for numeration and flow cytometry assited phenotyping. Blood lymphocytes were counted using Türk blue.
The blood compartment represents only 1 to 2% on the total body lymphoid mass. Lymphocyte depletion by phenotyping for T and B cells, spleen and lymph nodes 10 days after onset of immunosuppression has been monitored. Similarly to the situation in the blood compartment, ATG- and fludarabine-based immunosuppressive therapies induced a depletion of the T lymphocyte pool in lymphoid organs (Table 1).
Peripheral lymphoid organs were sampled 10 days after onset of immunosuppressive treatment administration. Values presented are the percentages of CD4, CD8 and B220 cells observed in the spleen and lymph nodes.

Assay [2] deals with peripheral blood lymphocytes (CD4+, CD8+, CD49d+ and B220+). The experiment in a line: Peripheral blood lymphocyte depletion induced by immunosuppressive treatment (Example 2). Particulars: after onset of treatment; Fludarabine 100 mg/kg/day ip for 6 days. The method, then:
Kinetic of the number of lymphocytes (CD4+, CD8+, CD49d+ and B220+) in peripheral blood following i.p. injection of 100 mg/kg/day Fludarabine for 6 days or following a single i.p. injection of 20 mg/kg ATG. Controls are injected with PBS or with 20 mg/kg of normal rabbit serum (NRS)
as §1
(§2) Blood, lymph node cells and splenocytes were processed according to previously described methods (28, 29) for numeration and flow cytometry assisted phenotyping. Blood lymphocytes were counted using Trypan blue.
Mouse ATG were prepared by injecting a rabbit sc with 5×10^8 thymocytes sampled on 6-weeks old C57BL/6 mice. This immunization was boosted 14 days later with an iv injection of identical material. Seven days later the animal was bled and serum IgG were purified on immobilized protein G column (Pierce). Purity was controlled by SDS PAGE analysis and quantity was estimated by the Bradford method with known concentration rabbit IgG as standards. Rabbit ATG was used at a concentration of 20 mg/kg with a single injection. As a control, normal rabbit serum was used.
Fludarabine (Sigma) was used at a concentration of 100 mg/kg/day for 6 days. Monoclonal antibodies: anti-CD4-APC, anti-CD8-PerCP, anti-B220-FITC and anti-CD49d (Pan NK)-PE were obtained from BD Biosciences.

In assay [3] the test system is CD4, CD8, CD49d and B220 cells in the spleen and maxillary lymph nodes. The experiment in a line: Lymphocyte depletion in lymphoid organs, phenotyping of spleen and maxillary lymph nodes (Example 2, Table 2). Particulars: 14 days after onset of treatment, ATG 20 mg/kg single ip, Fludarabine 100 mg/kg/day ip 6 days. The method, then:
as §1, §2
The blood compartment represents only 1 to 2% on the total body lymphoid mass. The Inventors therefore monitored lymphocyte depletion by phenotyping for T and B cells, spleen and lymph nodes 14 days after onset of immunosuppression. Compared to controls (PBS and NRS) Fludarabine- and ATG-based immunosuppressive therapies induced modifications of lymphocyte proportion in lymphoid organs (Table 2).
Peripheral lymphoid organs were sampled 14 days after onset of immunosuppressive treatment administration. Values presented are the percentages of CD4, CD8, CD49d and B220 cells observed in the spleen and maxillary lymph nodes, and the absolute values of CD4, CD8, CD49d and B220 by reference to the number of lymphocytes contained in each organ.

In assay [4] the test system is CEA-specific IFN-γ producing CD8+ cells. The experiment in a line: γ-IFN ELISpot assay of CEA-specific CD8+ cells after immunization (Example 2). The method, then: […] Seven days after last immunization, CEA-specific IFN-γ producing CD8+ cells were detected by ex vivo ELISpot assay using 1 μg/ml CEA pepscan. Data are expressed as the median numbers of γ-IFN spot forming colonies, SFC (n=3).
ATG- or Fludarabine-based immunosuppressive treatments were applied to animals 7 days prior to prime boost immunization with recombinant proteins. Immunizations performed iv with equimolar amounts of indicated recombinant proteins (50 μg for CyaAs, 19.2 μg for His-tag CEA) in presence of 10 μg CpG, were boosted id 7 days later with 10 μg of similar material (3.8 μg for His-tag CEA) and 2 μg of CpG. Seven days after last immunization, CEA-specific IFN-γ producing CD8+ cells were detected by ex vivo ELISpot assay using 1 μg/ml CEA pepscan. Data are expressed as the median numbers of γ-IFN spot forming colonies, SFC (n=2).
Multiscreen filtration plates (96 wells; Millipore, France) were coated with 4 μg/ml of rat anti-mouse gamma interferon (IFN-γ) antibody (clone R4-6A2; PharMingen, San Diego, Calif.), overnight at room temperature. Spleen cells from immunized mice were added to the wells and incubated for 20 h with or without CEA pepscan at 1 μg/ml. […] The number of γ-IFN producing cells was determined by counting the number of spot-forming colonies (SFC) in each well (C.T.L., Germany), and the results were expressed as number of SFC per 1×10^6 splenocytes (20).

For `Nc1nc(F)nc2c1ncn2[C@@H]1O[C@H](CO)[C@@H](O)[C@@H]1O` [Fludarabine], the “size of tumors relative to the other groups (smaller)” value in the assay with MCa32A cells (at the time of CyaA-based immunotherapy) is 20 times. Further, in the assay with MCa32A cells (immunosuppressive treatment 3 days after tumor inoculation, no CEA immunization), the “survival median of mock-treated animals” value was 21 to 25 days. Besides, in assay [1], the “percentage of B220+ cells, Lymph nodes” value is 32.4%; the “percentage of B220+ cells, Spleen” value is given as 54.3%; the “percentage of CD4+ cells, Lymph nodes” value was 37.8%; the “percentage of CD4+ cells, Spleen” value was 21.9%. In assay [1], the “percentage of CD8+ cells, Lymph nodes” value worked out at 20.8% and the “percentage of CD8+ cells, Spleen” value is on record as 5.3%. Also, in assay [2], the “time for T cell values to return to control groups” value is no more than 7 days. Also, in assay [3], the “B220+ absolute value, Spleen” value is 8 10^6 cells/ml; the “B220+ percentage, Spleen” value is given as 42.4%; the “CD4+ absolute value, Spleen” value was 3.8 10^6 cells/ml; the “CD4+ percentage, Spleen” value is reported as 20.4%. Moreover, in assay [3], the “CD8+ absolute value, Spleen” value was 2.5 10^6 cells/ml; the “CD8+ percentage, Spleen” value was found to be 13.4%; the “CD49d+ absolute value, Spleen” value is reported as 1.4 10^6 cells/ml; the “CD49d+ percentage, Spleen” value came out at 7.5%. In assay [3] (maxillary lymph nodes), the “B220+ absolute value, Lymph nodes” value is reported as 0.3 10^6 cells/ml; the “B220+ percentage, Lymph nodes” value worked out at 30.2%; the “CD4+ absolute value, Lymph nodes” value is 0.3 10^6 cells/ml; the “CD4+ percentage, Lymph nodes” value is 31.3%. In assay [3] (maxillary lymph nodes), the “CD8+ absolute value, Lymph nodes” value is recorded as 0.3 10^6 cells/ml; the “CD8+ percentage, Lymph nodes” value was determined as 35.3%; the “CD49d+ absolute value, Lymph nodes” value was 0.03 10^6 cells/ml; the “CD49d+ percentage, Lymph nodes” value turned out to be 3.8%.

B1: His-Tag-CEA: histidine-tagged full length CEA protein, used as control, formulated with CpG (protein, UniProt P06731 1-702, looked up)
chain: MESPSAPPHRWCIPWQRLLLTASLLTFWNPPTTAKLTIESTPFNVAEGKEVLLLVHNLPQHLFGYSWYKGERVDGNRQIIGYVIGTQQATPGPAYSGREIIYPNASLLIQNIIQNDTGFYTLHVIKSDLVNEEATGQFRVYPELPKPSISSNNSKPVEDKDAVAFTCEPETQDATYLWWVNNQSLPVSPRLQLSNGNRTLTLFNVTRNDTASYKCETQNPVSARRSDSVILNVLYGPDAPTISPLNTSYRSGENLNLSCHAASNPPAQYSWFVNGTFQQSTQELFIPNITVNNSGSYTCQAHNSDTGLNRTTVTTITVYAEPPKPFITSNNSNPVEDEDAVALTCEPEIQNTTYLWWVNNQSLPVSPRLQLSNDNRTLTLLSVTRNDVGPYECGIQNELSVDHSDPVILNVLYGPDDPTISPSYTYYRPGVNLSLSCHAASNPPAQYSWLIDGNIQQHTQELFISNITEKNSGLYTCQANNSASGHSRTTVKTITVSAELPKPSISSNNSKPVEDKDAVAFTCEPEAQNTTYLWWVNGQSLPVSPRLQLSNGNRTLTLFNVTRNDARAYVCGIQNSVSANRSDPVTLDVLYGPDTPIISPPDSSYLSGANLNLSCHSASNPSPQYSWRINGIPQQHTQVLFIAKITPNNNGTYACFVSNLATGRNNSIVKSITVSASGTSPGLSAGATVGIMIGVLVGVALI
modifications: full-length His tag
notes: histidine-tagged full length CEA protein, used as control, formulated with CpG
In the case of B1, the “CEA-specific cellular immune responses upon immunization after immunosuppressive treatment” value in assay [4] (compared with CyaA-CEAA3B3 + CpG, prime-boost with CpG) was “Lower CEA-specific cellular immune responses were detected”. The “cellular immune response characterized by γ-IFN secretion” value in assay [4] (one single iv administration, with CpG adjuvant, no immunosuppression) is listed as “neither CyaAΔ-CEAA3B3 nor His-tag-CEA protein formulated with an adjuvant such as CpG, were able to mount a cellular immune response”.

For the origin of these results see patent publication US9486524B2, “Composition for eliciting a specific CTL response, comprising a lympho-ablative compound and a molecule that contains antigenic sequences and targets professional antigen presenting cells” (priority 2006, dated 2016).
